Results on one substance are retold here after US7897559B2, “Dermatological composition and kit containing avermectin compound for treating dermatological conditions” (priority 2000, dated 2011).

The conditions of data set [1]: oral dosage of a moderate ivermectin concentration; cited from earlier work.
In a further data set the test system is head lice. The conditions noted are these: after a single topical application; cited from earlier work.
Data set [2] in a line: Safety and tolerability observed in the informal trials of topical ivermectin. As to conditions: informal clinical trial, topical application, any body locations. It is filed as in vivo, human. An excerpt:
It is known that some of the diseases, such as perioral dermatitis, the skin on the eyelids can be affected. To treat eyelids, a high concentration of the medicine should be avoided to prevent irritation of the eyes.
(§1) Examples 4 to 12 illustrate clinical effectiveness of the method of the present invention.

Data set [3] deals with transient acantholytic dermatitis, acne miliaris necrotica, acne varioliformis, perioral dermatitis, acneiform eruptions, acne vulgaris, seborrheic dermatitis. Put plainly: Informal clinical trial of topical ivermectin across the dermatological conditions. It is filed as in vivo, human.
Source text: In a preferred embodiment, ivermectin is used because it is readily available commercially. The concentration of ivermectin in the dermatological composition for the purpose of the present invention can be in a broad range from about 0.05% to 8% weight by volume (w/v).
The treatment method using ivermectin dermatological composition for each of these dermatological conditions is similar. Preferably, in an initial treatment of these dermatological conditions the ivermectin dermatological composition can be applied topically from one to several times daily for a period of from about one week to several weeks, to substantially control the condition and clear the lesions. The initial dosage, including frequency of the topical application, ivermectin concentration of the dermatological composition, and the length of the initial treatment period can be determined depending on a specific disease, severity of the disease, and the response of the patient to the medication. For example, acne miliaris necrotica is more difficult to treat, and it frequently requires an initial treatment of three weeks or longer. While perioral dermatitis patients can respond to ivermectin treatment rapidly, and healing of lesions can occur in less than two weeks. After the initial treatment, a maintenance dosage, that has less frequent application, and/or a dermatological composition with less concentration of ivermectin, can be used for maintaining the condition.
as §1

[4] abbreviates: informal clinical trial, topical application to affected skin.

Consider ivermectin, for which the safety in human result in data set [1] was “safe in human, without serious adverse side effects”. In the data set with head lice, the “curative effect on head lice” value is listed as “absolute curative effect”. For the same substance, the side effects entry in data set [2] is “no side effects observed in any body locations”. In addition, in data set [3] (setting [4]), the “dermal infection of the affected area” value is listed as “controls dermal infection of the affected area”; the “inflammation of the affected area” value is on record as “controls inflammation of the affected area”; the “itching and skin irritation caused by the conditions” value is “removes itching and skin irritation”; the lesions entry is reported as “clears up lesions”. The clinical effectiveness entry in data set [3] (lotion or cream, ivermectin concentration as low as 0.075%) is “clinically effective”.
